How the values were obtained:
[1] = biological target: Matrix metalloproteinase-9 (Homo sapiens, UniProt P14780); type: cell-based;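 also: inhibition of isolated MMP-9 enzyme activity toward a synthetic peptide substrate, from the DrugMatrix protease screening panel; in other assays of this panel Not Active means under 50% inhibition at 10 µM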
[2] = biological target: Prostaglandin G/H synthase 1 (Homo sapiens, UniProt P23219); assay: biochemical; type: tissue-based, Platelet; settings: platelet;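 also: inhibition of COX-1 enzyme activity, with arachidonic acid supplied as substrate; in other assays of this panel Not Active means under 50% inhibition at 10 µM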
[3] = biological target: T1, Polyunsaturated fatty acid lipoxygenase ALOX15 (Oryctolagus cuniculus, UniProt P12530); assay: biochemical; type: tissue-based, Reticulocytes;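 also: inhibition of 15-lipoxygenase enzyme activity measured with linoleic acid as the substrate; in other assays of this panel Not Active means under 50% inhibition at 10 µM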
T1 sequence (P12530 whole entry): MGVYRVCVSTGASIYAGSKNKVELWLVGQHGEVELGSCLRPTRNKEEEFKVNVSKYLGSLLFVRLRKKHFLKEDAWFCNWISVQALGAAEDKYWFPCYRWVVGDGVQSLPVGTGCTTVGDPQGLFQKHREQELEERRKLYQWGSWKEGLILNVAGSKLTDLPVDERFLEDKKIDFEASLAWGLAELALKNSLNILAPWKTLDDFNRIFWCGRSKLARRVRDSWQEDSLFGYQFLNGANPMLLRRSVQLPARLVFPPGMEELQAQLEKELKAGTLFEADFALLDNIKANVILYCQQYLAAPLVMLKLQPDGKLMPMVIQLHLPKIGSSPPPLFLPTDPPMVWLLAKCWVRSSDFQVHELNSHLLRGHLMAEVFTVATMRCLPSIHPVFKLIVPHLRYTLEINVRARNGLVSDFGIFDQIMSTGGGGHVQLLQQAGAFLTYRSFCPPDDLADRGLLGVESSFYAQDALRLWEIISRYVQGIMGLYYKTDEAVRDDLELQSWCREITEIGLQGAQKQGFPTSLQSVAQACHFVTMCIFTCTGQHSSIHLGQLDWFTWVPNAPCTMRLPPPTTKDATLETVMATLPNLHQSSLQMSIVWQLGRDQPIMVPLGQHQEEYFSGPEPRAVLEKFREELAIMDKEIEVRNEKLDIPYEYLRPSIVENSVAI

[4] = biological target: T2, Nitric oxide synthase, inducible (Mus musculus, UniProt P29477); set-up: species or system Escherichia coli;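 also: inhibition of iNOS enzyme activity measured with L-arginine as substrate; in other assays of this panel Not Active means under 50% inhibition at 10 µM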
T2 sequence (P29477 whole entry): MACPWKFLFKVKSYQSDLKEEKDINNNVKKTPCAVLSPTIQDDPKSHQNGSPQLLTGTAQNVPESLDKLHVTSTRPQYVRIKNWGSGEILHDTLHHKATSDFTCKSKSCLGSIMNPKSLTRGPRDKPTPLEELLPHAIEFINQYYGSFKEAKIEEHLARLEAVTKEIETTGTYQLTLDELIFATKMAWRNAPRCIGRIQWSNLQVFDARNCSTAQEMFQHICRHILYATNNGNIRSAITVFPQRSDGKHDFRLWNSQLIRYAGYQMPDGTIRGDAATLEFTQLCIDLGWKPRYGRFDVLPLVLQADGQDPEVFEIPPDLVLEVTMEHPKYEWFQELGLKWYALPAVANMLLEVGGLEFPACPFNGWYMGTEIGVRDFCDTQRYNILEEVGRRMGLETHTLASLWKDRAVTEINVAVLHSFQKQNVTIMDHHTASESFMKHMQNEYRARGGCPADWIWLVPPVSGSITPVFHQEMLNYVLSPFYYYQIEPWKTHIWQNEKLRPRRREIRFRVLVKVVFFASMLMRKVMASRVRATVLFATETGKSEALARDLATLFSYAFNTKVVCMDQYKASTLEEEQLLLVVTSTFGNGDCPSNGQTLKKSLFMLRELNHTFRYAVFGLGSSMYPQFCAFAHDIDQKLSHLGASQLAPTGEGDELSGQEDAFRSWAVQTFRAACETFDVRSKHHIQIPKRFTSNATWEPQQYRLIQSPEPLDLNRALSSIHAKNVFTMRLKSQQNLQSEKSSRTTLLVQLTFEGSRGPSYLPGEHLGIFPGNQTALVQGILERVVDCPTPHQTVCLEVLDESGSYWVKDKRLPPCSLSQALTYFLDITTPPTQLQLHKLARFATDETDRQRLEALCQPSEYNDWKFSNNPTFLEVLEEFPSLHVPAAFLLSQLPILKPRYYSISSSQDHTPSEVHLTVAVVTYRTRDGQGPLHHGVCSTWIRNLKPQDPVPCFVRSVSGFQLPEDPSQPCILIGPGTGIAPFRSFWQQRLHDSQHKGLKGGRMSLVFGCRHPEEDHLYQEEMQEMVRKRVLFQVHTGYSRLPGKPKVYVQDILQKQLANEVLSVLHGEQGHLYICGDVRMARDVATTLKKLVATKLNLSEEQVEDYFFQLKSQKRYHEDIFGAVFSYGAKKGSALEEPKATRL

[5] = DRUGMATRIX: Calcium Channel Type L, Phenylalkylamine radioligand binding (ligand: [3H] (-)-Desmethoxyverapamil (D-888)); type: cell membranes, Rattus norvegicus, Wistar, Brain, Membrane; settings: Not Active = under 50% inhibition at 10 µM
[6] = biological target: T3, Alpha-2A adrenergic receptor (Homo sapiens, UniProt P08913); type: cell membranes, Sf9, Membrane; also: in other assays of this panel Not Active means under 50% inhibition at 10 µM
T3 sequence (P08913 whole entry): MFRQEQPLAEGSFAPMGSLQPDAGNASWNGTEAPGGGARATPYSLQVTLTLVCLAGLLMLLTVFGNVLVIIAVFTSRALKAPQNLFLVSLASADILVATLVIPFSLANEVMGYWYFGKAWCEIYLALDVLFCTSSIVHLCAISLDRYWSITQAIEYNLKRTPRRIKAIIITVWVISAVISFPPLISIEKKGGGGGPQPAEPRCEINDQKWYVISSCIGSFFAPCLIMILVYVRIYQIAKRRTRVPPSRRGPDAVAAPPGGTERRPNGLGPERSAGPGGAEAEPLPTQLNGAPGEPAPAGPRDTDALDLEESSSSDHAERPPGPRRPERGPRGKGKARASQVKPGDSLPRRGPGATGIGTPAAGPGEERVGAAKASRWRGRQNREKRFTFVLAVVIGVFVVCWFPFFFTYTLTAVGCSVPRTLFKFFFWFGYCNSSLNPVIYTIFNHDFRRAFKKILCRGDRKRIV

[7] = biological target: Sodium-dependent dopamine transporter (Homo sapiens, UniProt Q01959); assay: DRUGMATRIX: Dopamine Transporter radioligand binding (ligand: [125I] RTI-55); type: cell membranes, CHO-K1, Membrane; settings: Not Active = under 50% inhibition at 10 µM; for Ki: read-out: Ki
[8] = biological target: T4, Neuropeptide Y receptor type 1 (Homo sapiens, UniProt P25929); type: cell membranes, Membrane; settings: sk-n-mc; also: in other assays of this panel Not Active means under 50% inhibition at 10 µM
T4 sequence (P25929 whole entry): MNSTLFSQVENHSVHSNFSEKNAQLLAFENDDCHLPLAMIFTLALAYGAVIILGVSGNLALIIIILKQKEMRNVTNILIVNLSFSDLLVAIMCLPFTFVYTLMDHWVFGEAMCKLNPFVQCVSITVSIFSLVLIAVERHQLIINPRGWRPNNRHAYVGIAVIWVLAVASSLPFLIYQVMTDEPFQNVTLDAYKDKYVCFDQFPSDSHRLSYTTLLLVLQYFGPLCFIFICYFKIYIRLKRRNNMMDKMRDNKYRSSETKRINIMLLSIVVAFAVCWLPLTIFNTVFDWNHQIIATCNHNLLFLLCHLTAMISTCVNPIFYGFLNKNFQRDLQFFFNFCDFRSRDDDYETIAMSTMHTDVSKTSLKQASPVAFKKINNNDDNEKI

Sequence of Prostaglandin G/H synthase 1 (P23219 whole entry): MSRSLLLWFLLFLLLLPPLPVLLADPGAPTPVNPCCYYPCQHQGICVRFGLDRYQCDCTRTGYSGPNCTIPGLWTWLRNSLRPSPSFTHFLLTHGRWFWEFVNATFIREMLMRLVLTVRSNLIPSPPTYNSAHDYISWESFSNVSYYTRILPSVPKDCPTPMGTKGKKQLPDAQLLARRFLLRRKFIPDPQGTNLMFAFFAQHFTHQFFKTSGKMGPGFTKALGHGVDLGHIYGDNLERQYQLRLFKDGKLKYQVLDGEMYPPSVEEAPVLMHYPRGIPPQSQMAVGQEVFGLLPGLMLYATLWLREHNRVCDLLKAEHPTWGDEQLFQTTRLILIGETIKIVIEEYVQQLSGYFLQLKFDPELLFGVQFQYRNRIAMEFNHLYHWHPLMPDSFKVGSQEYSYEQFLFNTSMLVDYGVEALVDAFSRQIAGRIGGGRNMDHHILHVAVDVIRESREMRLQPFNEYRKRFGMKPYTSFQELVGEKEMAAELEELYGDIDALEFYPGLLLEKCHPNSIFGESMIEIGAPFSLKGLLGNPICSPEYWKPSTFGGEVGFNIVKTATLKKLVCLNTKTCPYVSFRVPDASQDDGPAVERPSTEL
Sequence of Sodium-dependent dopamine transporter (Q01959 whole entry): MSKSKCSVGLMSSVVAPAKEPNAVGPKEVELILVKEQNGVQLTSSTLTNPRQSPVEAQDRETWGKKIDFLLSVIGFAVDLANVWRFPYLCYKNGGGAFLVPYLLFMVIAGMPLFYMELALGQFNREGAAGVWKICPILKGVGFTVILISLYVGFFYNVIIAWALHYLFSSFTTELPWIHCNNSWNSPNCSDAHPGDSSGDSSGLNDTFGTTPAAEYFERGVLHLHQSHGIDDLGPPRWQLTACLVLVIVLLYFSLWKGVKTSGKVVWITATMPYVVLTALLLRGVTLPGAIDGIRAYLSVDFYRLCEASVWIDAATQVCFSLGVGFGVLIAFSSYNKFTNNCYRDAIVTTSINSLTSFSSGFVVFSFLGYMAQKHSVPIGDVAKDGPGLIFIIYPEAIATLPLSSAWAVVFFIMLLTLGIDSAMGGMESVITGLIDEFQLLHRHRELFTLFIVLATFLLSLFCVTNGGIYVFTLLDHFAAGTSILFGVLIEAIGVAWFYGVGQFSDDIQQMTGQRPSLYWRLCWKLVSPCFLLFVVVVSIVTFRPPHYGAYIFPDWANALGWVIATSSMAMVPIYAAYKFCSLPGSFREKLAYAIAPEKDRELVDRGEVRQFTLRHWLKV
Sequence of Matrix metalloproteinase-9 (P14780 whole entry): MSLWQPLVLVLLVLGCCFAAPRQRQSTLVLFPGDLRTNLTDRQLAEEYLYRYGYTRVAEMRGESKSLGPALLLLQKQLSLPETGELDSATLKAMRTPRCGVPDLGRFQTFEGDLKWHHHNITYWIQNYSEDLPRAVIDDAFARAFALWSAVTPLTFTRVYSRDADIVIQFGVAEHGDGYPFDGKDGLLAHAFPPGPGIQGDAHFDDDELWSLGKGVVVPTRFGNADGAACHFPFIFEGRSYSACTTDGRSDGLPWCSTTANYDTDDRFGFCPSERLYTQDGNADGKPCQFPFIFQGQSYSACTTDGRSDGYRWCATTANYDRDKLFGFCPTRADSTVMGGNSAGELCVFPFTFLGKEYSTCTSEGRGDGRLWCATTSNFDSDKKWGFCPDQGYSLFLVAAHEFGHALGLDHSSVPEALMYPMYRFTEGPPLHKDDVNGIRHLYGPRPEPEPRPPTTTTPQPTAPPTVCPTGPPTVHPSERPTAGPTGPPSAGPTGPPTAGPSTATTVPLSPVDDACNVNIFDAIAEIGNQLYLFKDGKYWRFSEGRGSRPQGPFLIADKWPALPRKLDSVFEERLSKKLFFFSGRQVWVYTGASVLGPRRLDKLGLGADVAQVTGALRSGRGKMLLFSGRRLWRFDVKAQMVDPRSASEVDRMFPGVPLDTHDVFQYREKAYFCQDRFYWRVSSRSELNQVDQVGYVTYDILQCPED

Structure (SMILES)	IC50 [1]	IC50 [2]	IC50 ([3]; reticulocytes)	IC50 [4]	IC50 [5]	Ki [5]	IC50 ([6]; sf9)	IC50 ([7]; cho-k1)	IC50 [8]	IC50 ([7]; read-out: IC50)	Ki [7]	IC50 ([6]; read-out: IC50)	Ki ([6]; read-out: Ki)	IC50 ([3]; read-out: IC50)	Ki [4]	IC50 ([5]; read-out: IC50)	Ki ([5]; read-out: Ki)
CO[C@@H]1[C@@H](O[C@@H]2O[C@H](C)[C@@H](O[C@H]3C[C@@](C)(O)[C@@H](OC(=O)CC(C)C)[C@H](C)O3)[C@H](N(C)C)[C@H]2O)[C@@H](CC=O)C[C@@H](C)[C@@H](O)/C=C/C=C/C[C@@H](C)OC(=O)C[C@H]1O [KITASAMYCIN]	Not Active	Not Active	Not Active	Not Active	Not Active	Not Active	Not Active	Not Active	Not Active								
CC(CCc1ccccc1)NCC(O)c1ccc(O)c(C(N)=O)c1 (stereo not given) [LABETALOL]	Not Active	Not Active	Not Active	Not Active	Not Active	Not Active	Not Active		Not Active	1.61 µM	1.28 µM						
Nc1nnc(-c2cccc(Cl)c2Cl)c(N)n1 [LAMOTRIGINE]	Not Active	Not Active	Not Active	Not Active	Not Active	Not Active	Not Active	Not Active	Not Active								
CCC[C@@H]1C[C@@H](C(=O)N[C@@H]([C@H]2O[C@H](SC)[C@H](O)[C@@H](O)[C@H]2O)[C@@H](C)O)N(C)C1 [LINCOMYCIN]	Not Active	Not Active	Not Active	Not Active	Not Active	Not Active	Not Active	Not Active	Not Active								
NCCCC[C@H](N[C@@H](CCc1ccccc1)C(=O)O)C(=O)N1CCC[C@H]1C(=O)O [LISINOPRIL ANHYDROUS]	Not Active	Not Active	Not Active	Not Active	Not Active	Not Active	Not Active	Not Active	Not Active								
COS(C)(=O)=O [METHANESULFONIC ACID METHYL ESTER]	Not Active	Not Active	Not Active	Not Active	Not Active	Not Active	Not Active	Not Active	Not Active								
COC(=O)c1ccc(O)cc1 [METHYLPARABEN]	Not Active	Not Active	Not Active	Not Active	Not Active	Not Active	Not Active	Not Active	Not Active								
C[C@](N)(Cc1ccc(O)cc1)C(=O)O [METYROSINE]	Not Active	Not Active	Not Active	Not Active	Not Active	Not Active	Not Active	Not Active	Not Active								
Clc1ccc(C(c2ccccc2Cl)C(Cl)Cl)cc1 (stereo not given) [MITOTANE]	Not Active	Not Active	Not Active	Not Active	Not Active	Not Active			Not Active	1 µM	0.795 µM	7.35 µM	2.75 µM				
O=C1c2c(O)ccc(O)c2C(=O)c2c(NCCNCCO)ccc(NCCNCCO)c21 [MITOXANTRONE]	Not Active	Not Active			Not Active	Not Active	Not Active	Not Active	Not Active					1.79 µM	Not Active		
COc1c(C)c2c(c(O)c1C/C=C(\C)CCC(=O)OCCN1CCOCC1)C(=O)OC2 [MYCOPHENOLATE MOFETIL]	Not Active	Not Active	Not Active	Not Active	Not Active	Not Active	Not Active	Not Active	Not Active								
COC(=O)C1=C(C)NC(C)=C(C(=O)OC)C1c1ccccc1[N+](=O)[O-] [NIFEDIPINE]	Not Active	Not Active		Not Active			Not Active	Not Active	Not Active					15.1 µM		0.878 µM	0.853 µM
NNc1ccccc1 [PHENYLHYDRAZINE]	Not Active	Not Active		Not Active	Not Active	Not Active	Not Active	Not Active	Not Active					1.67 µM			
